Reference: ChEMBL document CHEMBL5584309, “Discovery of Novel Mcl-1 Inhibitors with a 3-Substituted-1H-indole-1-yl Moiety Binding to the P1-P3 Pockets to Induce Apoptosis in Acute Myeloid Leukemia Cells” (J Med Chem, 2024)
Active and inactive are the calls of the source. The calls are words filed in the database; no cut-off is given here.

Tests used:
[1] = Metabolic stability in rat liver microsomes assessed as compound remaining measured after 60 mins by LC-MS/MS analysis; type: ADME, Microsome; settings: read-out: Stability
[2] = Metabolic stability in rat liver microsomes assessed as intrinsic clearance by LC-MS/MS analysis; type: ADME, Microsome; settings: read-out: CLH
U-937 = experiment: Antiproliferative activity against human U-937 cells assessed as growth inhibition measured after 72 hrs by CCK-8 assay; type: functional, cell-based; settings: U-937, 72 h
HL-60 [3] = experiment: Induction of apoptosis in human HL-60 cells assessed as late apoptotic cells at 5 uM measured after 24 hrs by Annexin V-FITC/propidium iodide double staining based assay (reference value: 3.78%); type: functional
THP-1 [4] = experiment: Induction of apoptosis in human THP-1 cells assessed as necrotic cells at 10 uM measured after 24 hrs by Annexin V-FITC/propidium iodide double staining based assay (reference value: 0.13%); type: functional
HL-60 [5] = experiment: Induction of apoptosis in human HL-60 cells assessed as cleaved PARP at 10 to 20 uM measured after 24 hrs by Western blot analysis; type: functional, cell-based; settings: dose 10-20 µM
HL-60 [6] = experiment: Induction of apoptosis in human HL-60 cells assessed as late apoptotic cells at 10 uM measured after 24 hrs by Annexin V-FITC/propidium iodide double staining based assay (reference value: 3.78%); type: functional
HL-60 [7] = experiment: Induction of apoptosis in human HL-60 cells assessed as viable cells at 2.5 uM measured after 24 hrs by Annexin V-FITC/propidium iodide double staining based assay (reference value: 92.68%); type: functional; settings: read-out: Activity
[8] = Metabolic stability in rat plasma assessed as compound remaining measured after 10 mins by LC-MS/MS analysis; type: ADME, cell-free; settings: read-out: Stability
Bcl-2-related protein A1 = target: T1, Bcl-2-related protein A1 (Homo sapiens, UniProt Q16548); experiment: Binding affinity to Bfl-1 (unknown origin) pre-incubated for 30 mins followed by addition FAM-peptide further incubated for 20 mins by fluorescence polarization-based binding assay
T1 sequence (Q16548 whole entry): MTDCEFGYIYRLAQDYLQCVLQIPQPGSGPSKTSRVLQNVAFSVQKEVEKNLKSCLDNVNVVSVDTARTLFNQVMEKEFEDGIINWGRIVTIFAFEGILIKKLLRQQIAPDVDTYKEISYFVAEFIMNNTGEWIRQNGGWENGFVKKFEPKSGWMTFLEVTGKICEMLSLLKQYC

THP-1 [9] = experiment: Induction of apoptosis in human THP-1 cells assessed as necrotic cells at 5 uM measured after 24 hrs by Annexin V-FITC/propidium iodide double staining based assay (reference value: 0.13%); type: functional
THP-1 [10] = experiment: Induction of apoptosis in human THP-1 cells assessed as viable cells at 10 uM measured after 24 hrs by Annexin V-FITC/propidium iodide double staining based assay (reference value: 93.02%); type: functional; settings: read-out: Activity
THP-1 [11] = experiment: Induction of apoptosis in human THP-1 cells assessed as viable cells at 5 uM measured after 24 hrs by Annexin V-FITC/propidium iodide double staining based assay (reference value: 93.02%); type: functional; settings: read-out: Activity
HL-60 [12] = experiment: Induction of apoptosis in human HL-60 cells assessed as early apoptotic cells at 5 uM measured after 24 hrs by Annexin V-FITC/propidium iodide double staining based assay (reference value: 3.37%); type: functional
THP-1 [13] = experiment: Induction of apoptosis in human THP-1 cells assessed as early apoptotic cells at 10 uM measured after 24 hrs by Annexin V-FITC/propidium iodide double staining based assay (reference value: 4.04%); type: functional
THP-1 [14] = experiment: Induction of apoptosis in human THP-1 cells assessed as late apoptotic cells at 10 uM measured after 24 hrs by Annexin V-FITC/propidium iodide double staining based assay (reference value: 2.81%); type: functional
THP-1 [15] = experiment: Induction of apoptosis in human THP-1 cells assessed as cleaved PARP at 10 to 20 uM measured after 24 hrs by Western blot analysis; type: functional, cell-based; settings: dose 10-20 µM
THP-1 [16] = experiment: Induction of apoptosis in human THP-1 cells assessed as late apoptotic cells at 20 uM measured after 24 hrs by Annexin V-FITC/propidium iodide double staining based assay (reference value: 2.81%); type: functional
THP-1 [17] = experiment: Induction of apoptosis in human THP-1 cells assessed as late apoptotic cells at 5 uM measured after 24 hrs by Annexin V-FITC/propidium iodide double staining based assay (reference value: 2.81%); type: functional
[18] = Metabolic stability in rat liver microsomes assessed as compound remaining measured after 15 mins by LC-MS/MS analysis; type: ADME, Microsome; settings: read-out: Stability
[19] = Metabolic stability in rat liver microsomes assessed as compound remaining measured after 30 mins by LC-MS/MS analysis; type: ADME, Microsome; settings: read-out: Stability
HL-60 [20] = experiment: Induction of apoptosis in human HL-60 cells assessed as early apoptotic cells at 10 uM measured after 24 hrs by Annexin V-FITC/propidium iodide double staining based assay (reference value: 3.37%); type: functional
[21] = target: Induced myeloid leukemia cell differentiation protein Mcl-1 (Homo sapiens, UniProt Q07820); experiment: Binding affinity to Mcl-1 (unknown origin) pre-incubated for 30 mins followed by addition FAM-peptide further incubated for 20 mins by fluorescence polarization-based binding assay; settings: read-out: Ki
[22] = Metabolic stability in rat plasma assessed as compound remaining measured after 120 mins by LC-MS/MS analysis; type: ADME, cell-free; settings: read-out: Stability
THP-1 [23] = experiment: Induction of apoptosis in human THP-1 cells assessed as early apoptotic cells at 20 uM measured after 24 hrs by Annexin V-FITC/propidium iodide double staining based assay (reference value: 4.04%); type: functional
THP-1 [24] = experiment: Antiproliferative activity against human THP-1 cells assessed as growth inhibition measured after 72 hrs by CCK-8 assay; type: functional, cell-based; settings: THP-1, 72 h
HL-60 [25] = experiment: Induction of apoptosis in human HL-60 cells assessed as early apoptotic cells at 2.5 uM measured after 24 hrs by Annexin V-FITC/propidium iodide double staining based assay (reference value: 3.37%); type: functional
[26] = Metabolic stability in rat plasma assessed as compound remaining measured after 60 mins by LC-MS/MS analysis; type: ADME, cell-free; settings: read-out: Stability
[27] = Metabolic stability in rat plasma assessed as compound remaining measured after 30 mins by LC-MS/MS analysis; type: ADME, cell-free; settings: read-out: Stability
THP-1 [28] = experiment: Induction of apoptosis in human THP-1 cells assessed as viable cells at 20 uM measured after 24 hrs by Annexin V-FITC/propidium iodide double staining based assay (reference value: 93.02%); type: functional; settings: read-out: Activity
THP-1 [29] = experiment: In vivo antitumor activity against human THP-1 cells xenografted in female NOD SCID mouse assessed as tumor growth inhibition at 80 mg/kg, ip once daily after 10 days of tumor inoculation treated for 14 days relative to control; type: functional; settings: THP-1, 336 h, time 14 day, read-out: TGI
THP-1 [30] = experiment: Induction of apoptosis in human THP-1 cells assessed as early apoptotic cells at 5 uM measured after 24 hrs by Annexin V-FITC/propidium iodide double staining based assay (reference value: 4.04%); type: functional
HL-60 [31] = experiment: Induction of apoptosis in human HL-60 cells assessed as late apoptotic cells at 2.5 uM measured after 24 hrs by Annexin V-FITC/propidium iodide double staining based assay (reference value: 3.78%); type: functional
MOLM-13 = experiment: Antiproliferative activity against human MOLM-13 cells assessed as growth inhibition measured after 72 hrs by CCK-8 assay; type: functional, cell-based; settings: MOLM-13, 72 h

Chain of Induced myeloid leukemia cell differentiation protein Mcl-1 (Q07820 whole entry): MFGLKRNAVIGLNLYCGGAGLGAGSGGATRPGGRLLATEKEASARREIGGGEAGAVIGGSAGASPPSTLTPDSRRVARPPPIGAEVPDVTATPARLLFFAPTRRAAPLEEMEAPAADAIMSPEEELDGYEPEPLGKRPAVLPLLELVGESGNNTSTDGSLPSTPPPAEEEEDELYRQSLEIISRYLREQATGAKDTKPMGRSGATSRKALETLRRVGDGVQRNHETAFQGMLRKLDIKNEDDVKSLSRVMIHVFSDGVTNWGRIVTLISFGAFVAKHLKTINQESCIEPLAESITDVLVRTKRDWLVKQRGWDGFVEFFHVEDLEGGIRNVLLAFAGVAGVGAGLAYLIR

Row | remaining at 1 h [1] | microsomal CLint [2] | IC50 (U-937) | remaining at 10 min [8] | IC50 (Bcl-2-related protein A1) | remaining at 0.25 h [18] | Structure (SMILES) | Activity (HL-60 [3]) | Activity (THP-1 [4]) | Activity (HL-60 [5]) | Activity (HL-60 [6]) | viability at 2.5 µM (HL-60 [7]) | Activity (THP-1 [9]) | viability at 10 µM (THP-1 [10]) | viability at 5 µM (THP-1 [11]) | Activity (HL-60 [12]) | Activity (THP-1 [13]) | Activity (THP-1 [14]) | Activity (THP-1 [15]) | Activity (THP-1 [16]) | Activity (THP-1 [17]) | further results
1 | 34.1% | 30.6 µL/min/mg | 8.33 µM | 101% | > 10 µM | 67.4% | Cc1cc(OCCCc2c(C(=O)O)n(CCN3CCOCC3)c3c(-c4ccccc4Cn4cc(CCN(CCN5CCOCC5)S(=O)(=O)c5ccc(F)cc5)c5ccccc54)cccc23)cc(C)c1Cl | 13.47% | 0.14% | Active | 46.1% | 92.8% | 0.15% | 91.2% | 93.2% | 4.06% | 4.14% | 4.12% | Active | 6.3% | 2.59% | remaining at 0.5 h [19]: 53%; Activity (HL-60 [20]): 12.51%; Ki [21]: 0.024 µM; remaining at 2 h [22]: 82.1%; Activity (THP-1 [23]): 24.61%; IC50 (THP-1 [24]): 8.83 µM; Activity (HL-60 [25]): 3.06%; remaining at 1 h [26]: 94.8%; remaining at 0.5 h [27]: 87.7%; viability at 20 µM (THP-1 [28]): 68.6%; inhibition in vivo at 80 mg/kg (THP-1 [29]): 57.4%; Activity (THP-1 [30]): 4.1%; Activity (HL-60 [31]): 3.95%; IC50 (MOLM-13): 8.52 µM
2 | 31.6% | 34.9 µL/min/mg | 4.71 µM | 93.3% | > 10 µM | 67.6% | Cc1nn(C)c(COc2ccc(N3CCN(S(=O)(=O)N(C)C)CC3)cc2)c1-c1cccc2c(CCCOc3cccc4ccccc34)c(C(=O)O)n(CCN3CCOCC3)c12 | 4.82% | 0.09% | Active | 50.33% | 96.2% | 0.15% | 92.9% | 94% | 1.28% | 4.2% | 2.8% | Active | 24.35% | 2.54% | remaining at 0.5 h [19]: 51.8%; Activity (HL-60 [20]): 11.84%; Ki [21]: 0.012 µM; remaining at 2 h [22]: 114%; Activity (THP-1 [23]): 33.09%; IC50 (THP-1 [24]): 5.65 µM; Activity (HL-60 [25]): 0.97%; remaining at 1 h [26]: 106%; remaining at 0.5 h [27]: 104%; viability at 20 µM (THP-1 [28]): 41.9%; inhibition in vivo at 80 mg/kg (THP-1 [29]): 58.7%; Activity (THP-1 [30]): 3.36%; Activity (HL-60 [31]): 2.14%; IC50 (MOLM-13): 8.15 µM
